Data as given in US9242987B2, “Heterocyclyl pyrazolopyrimidine analogues as JAK inhibitors” (Cellzome Limited, priority 2009, dated 2016).
pIC50: −log10 of the molar value.

How the values were obtained:
JAK3 = biological target: T1, JAK3 (Homo sapiens, UniProt P52333); assay: Kinobeads assay, JAK3; type: binding; conditions: mixed Molt4/Ramos cell lysate, dot blot detection
T1 construct: endogenous in cells; host or cells: Mixed Molt4/Ramos lysate (1:2)
T1 sequence (P52333 1-1124): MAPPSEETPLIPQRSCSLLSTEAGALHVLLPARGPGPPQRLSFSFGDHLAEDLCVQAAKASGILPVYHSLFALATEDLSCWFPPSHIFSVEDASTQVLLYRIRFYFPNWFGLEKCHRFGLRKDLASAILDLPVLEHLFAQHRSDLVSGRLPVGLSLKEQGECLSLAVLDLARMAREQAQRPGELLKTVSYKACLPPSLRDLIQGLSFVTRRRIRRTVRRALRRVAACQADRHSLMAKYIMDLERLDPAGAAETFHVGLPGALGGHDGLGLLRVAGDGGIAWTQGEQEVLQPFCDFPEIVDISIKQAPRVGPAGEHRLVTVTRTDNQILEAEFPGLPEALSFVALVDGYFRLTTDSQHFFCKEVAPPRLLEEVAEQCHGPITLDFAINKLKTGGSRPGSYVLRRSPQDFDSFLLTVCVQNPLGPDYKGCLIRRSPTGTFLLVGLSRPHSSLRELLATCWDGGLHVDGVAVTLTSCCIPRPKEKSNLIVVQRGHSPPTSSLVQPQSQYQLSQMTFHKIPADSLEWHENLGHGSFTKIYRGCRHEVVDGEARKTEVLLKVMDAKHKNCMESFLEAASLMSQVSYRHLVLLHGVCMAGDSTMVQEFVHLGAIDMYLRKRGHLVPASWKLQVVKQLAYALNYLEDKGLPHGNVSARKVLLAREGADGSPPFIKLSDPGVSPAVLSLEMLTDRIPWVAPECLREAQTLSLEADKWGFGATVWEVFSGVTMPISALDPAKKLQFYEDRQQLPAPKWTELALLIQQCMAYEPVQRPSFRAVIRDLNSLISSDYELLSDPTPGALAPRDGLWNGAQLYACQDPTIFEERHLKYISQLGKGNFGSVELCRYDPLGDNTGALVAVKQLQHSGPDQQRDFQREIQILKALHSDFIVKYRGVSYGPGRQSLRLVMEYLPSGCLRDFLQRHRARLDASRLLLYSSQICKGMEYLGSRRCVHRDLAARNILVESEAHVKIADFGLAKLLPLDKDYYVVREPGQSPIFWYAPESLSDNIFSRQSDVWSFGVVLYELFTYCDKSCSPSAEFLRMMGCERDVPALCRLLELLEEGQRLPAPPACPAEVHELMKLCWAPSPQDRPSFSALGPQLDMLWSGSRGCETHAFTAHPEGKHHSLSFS
How it was run: (§1)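 Competition pulldown: compound dilution series incubated 3 h in cold room with immobilized aminopyrido-pyrimidine beads and mixed Molt4/Ramos lysate (1:2, 10 mg/mL protein) in DP buffer pH 7.4 with NP40. Bead-bound JAK2/JAK3 eluted, quantified by antibody dot blot with infrared detection; IC50 from dose-response curves.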

JAK2 = biological target: T2, JAK2 (Homo sapiens, UniProt O60674); assay: Kinobeads assay, JAK2; type: binding; conditions: mixed Molt4/Ramos cell lysate, dot blot detection
T2 construct: endogenous in cells; host or cells: Mixed Molt4/Ramos lysate (1:2)
How it was run: as §1

T2 sequence (O60674 whole entry): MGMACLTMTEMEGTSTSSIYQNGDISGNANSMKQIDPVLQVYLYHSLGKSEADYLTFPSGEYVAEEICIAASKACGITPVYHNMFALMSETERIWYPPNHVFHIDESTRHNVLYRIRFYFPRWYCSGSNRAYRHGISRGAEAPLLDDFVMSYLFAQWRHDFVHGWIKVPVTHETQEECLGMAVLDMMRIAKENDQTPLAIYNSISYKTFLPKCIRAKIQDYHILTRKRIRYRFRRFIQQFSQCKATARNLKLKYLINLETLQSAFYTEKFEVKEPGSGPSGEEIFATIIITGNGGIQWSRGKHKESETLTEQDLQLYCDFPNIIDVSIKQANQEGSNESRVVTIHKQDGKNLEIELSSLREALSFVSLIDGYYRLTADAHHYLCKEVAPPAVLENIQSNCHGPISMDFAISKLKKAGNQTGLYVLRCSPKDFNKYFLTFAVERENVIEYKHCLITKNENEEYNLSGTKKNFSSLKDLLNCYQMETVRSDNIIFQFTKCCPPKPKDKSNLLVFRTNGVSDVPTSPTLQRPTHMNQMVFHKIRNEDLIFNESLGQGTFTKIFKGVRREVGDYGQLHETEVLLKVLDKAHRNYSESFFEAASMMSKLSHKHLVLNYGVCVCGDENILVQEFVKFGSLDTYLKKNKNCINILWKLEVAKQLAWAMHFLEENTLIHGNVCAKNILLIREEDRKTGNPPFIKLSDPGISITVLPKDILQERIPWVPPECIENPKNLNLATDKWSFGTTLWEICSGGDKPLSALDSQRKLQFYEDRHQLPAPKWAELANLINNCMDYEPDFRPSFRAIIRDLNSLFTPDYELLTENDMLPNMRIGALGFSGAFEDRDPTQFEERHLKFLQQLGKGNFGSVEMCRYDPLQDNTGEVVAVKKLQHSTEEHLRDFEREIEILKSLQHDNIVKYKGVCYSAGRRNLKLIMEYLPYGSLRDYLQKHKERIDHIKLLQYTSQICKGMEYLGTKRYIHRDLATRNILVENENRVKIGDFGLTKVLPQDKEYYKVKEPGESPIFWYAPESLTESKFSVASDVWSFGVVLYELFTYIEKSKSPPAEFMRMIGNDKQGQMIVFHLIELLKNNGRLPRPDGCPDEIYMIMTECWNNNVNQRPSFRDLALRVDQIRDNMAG

| Structure (SMILES) | pIC50 (JAK3) | pIC50 (JAK2) |
| --- | --- | --- |
| Cn1cc(Nc2ncc3cnn(Cc4ccccc4OCCOCc4ccccc4)c3n2)cn1 [Example 221, 1-(2-(2-(Benzyloxy)ethoxy)benzyl)-N-(1-methyl-1H-pyrazol-4-yl)-1H-pyrazolo[3,4-d]pyrimidin-6-amine] | 6.00 to 7.00 | 5.00 to 6.00 |
| Cn1cc(Nc2ncc3cnn(Cc4cccc(OCCOCc5ccccc5)c4)c3n2)cn1 [Example 222, 1-(3-(2-(Benzyloxy)ethoxy)benzyl)-N-(1-methyl-1H-pyrazol-4-yl)-1H-pyrazolo[3,4-d]pyrimidin-6-amine] | 6.00 to 7.00 | ≤ 5.00 |
| Cn1cc(Nc2ncc3cnn(Cc4ccccc4Oc4ccccc4)c3n2)cn1 [Example 224, N-(1-Methyl-1H-pyrazol-4-yl)-1-(2-phenoxybenzyl)-1H-pyrazolo[3,4-d]pyrimidin-6-amine] | 6.00 to 7.00 | ≤ 5.00 |
| Cn1cc(Nc2ncc3cnn(Cc4cccc(OCCN5CCCC5=O)c4)c3n2)cn1 [Example 225, 1-(2-(3-((6-((1-Methyl-1H-pyrazol-4-yl)amino)-1H-pyrazolo[3,4-d]pyrimidin-1-yl)methyl)phenoxy)ethyl)pyrrolidin-2-one] | > 7.00 | ≤ 5.00 |
| Cn1cc(Nc2ncc3cnn(Cc4cccc5c4OCO5)c3n2)cn1 [Example 228, 1-(Benzo[d][1,3]dioxol-4-ylmethyl)-N-(1-methyl-1H-pyrazol-4-yl)-1H-pyrazolo[3,4-d]pyrimidin-6-amine] | > 7.00 | 6.00 to 7.00 |
| Cn1cc(Nc2ncc3cnn(Cc4cccc5c4OCCO5)c3n2)cn1 [Example 229, 1-((2,3-Dihydrobenzo[b][1,4]dioxin-5-yl)methyl)-N-(1-methyl-1H-pyrazol-4-yl)-1H-pyrazolo[3,4-d]pyrimidin-6-amine] | > 7.00 | 6.00 to 7.00 |
| Cn1cc(Nc2ncc3cnn(Cc4cccc(-c5ccncc5)c4)c3n2)cn1 [Example 230, N-(1-Methyl-1H-pyrazol-4-yl)-1-(3-(pyridin-4-yl)benzyl)-1H-pyrazolo[3,4-d]pyrimidin-6-amine] | > 7.00 | ≤ 5.00 |
| Cn1nc(Nc2ncc3cnn(Cc4ccccc4F)c3n2)cc1C(=O)O [Example 236, 3-((1-(2-Fluorobenzyl)-1H-pyrazolo[3,4-d]pyrimidin-6-yl)amino)-1-methyl-1H-pyrazole-5-carboxylic acid] | 6.00 to 7.00 | ≤ 5.00 |
| Cn1cnc(Nc2ncc3cnn(Cc4ccccc4F)c3n2)c1 [Example 237, 1-(2-Fluorobenzyl)-N-(1-methyl-1H-imidazol-4-yl)-1H-pyrazolo[3,4-d]pyrimidin-6-amine] | 6.00 to 7.00 | ≤ 5.00 |
| OCCn1ccc(Nc2ncc3cnn(Cc4ccccc4F)c3n2)n1 [Example 238, 2-(3-((1-(2-Fluorobenzyl)-1H-pyrazolo[3,4-d]pyrimidin-6-yl)amino)-1H-pyrazol-1-yl)ethanol] | 6.00 to 7.00 | ≤ 5.00 |
| CNC(=O)c1cc(Nc2ncc3cnn(Cc4ccccc4F)c3n2)c[nH]1 [Example 239, 4-((1-(2-Fluorobenzyl)-1H-pyrazolo[3,4-d]pyrimidin-6-yl)amino)-N-methyl-1H-pyrrole-2-carboxamide] | > 7.00 | > 7.00 |
| OCCn1cnc(Nc2ncc3cnn(Cc4ccccc4F)c3n2)c1 [Example 240, 2-(4-((1-(2-Fluorobenzyl)-1H-pyrazolo[3,4-d]pyrimidin-6-yl)amino)-1H-imidazol-1-yl)ethanol] | > 7.00 | 5.00 to 6.00 |
| Cn1ccc(Nc2ncc3cnn(Cc4ccccc4F)c3n2)c1 [Example 241, 1-(2-Fluorobenzyl)-N-(1-methyl-1H-pyrrol-3-yl)-1H-pyrazolo[3,4-d]pyrimidin-6-amine] | > 7.00 | 5.00 to 6.00 |
| CNC(=O)c1cc(Nc2ncc3cnn(Cc4ccccc4F)c3n2)cn1C [Example 242, 4-((1-(2-Fluorobenzyl)-1H-pyrazolo[3,4-d]pyrimidin-6-yl)amino)-N,1-dimethyl-1H-pyrrole-2-carboxamide] | > 7.00 | 6.00 to 7.00 |
| Cn1cc(Nc2ncc3cnn(Cc4ccccc4F)c3n2)cc1C(=O)NCCN1CCOCC1 [Example 243, 4-((1-(2-Fluorobenzyl)-1H-pyrazolo[3,4-d]pyrimidin-6-yl)amino)-1-methyl-N-(2-morpholinoethyl)-1H-pyrrole-2-carboxamide] | > 7.00 | > 7.00 |
| Cn1cc(Nc2ncc3cnn(Cc4ccccc4F)c3n2)cc1C(=O)N1CCOCC1 [Example 244, (4-((1-(2-Fluorobenzyl)-1H-pyrazolo[3,4-d]pyrimidin-6-yl)amino)-1-methyl-1H-pyrrol-2-yl)(morpholino)methanone] | > 7.00 | > 7.00 |
| Cn1cc(Nc2ncc3cnn(Cc4ccccc4F)c3n2)cc1C(=O)NCC#N [Example 245, N-(Cyanomethyl)-4-((1-(2-fluorobenzyl)-1H-pyrazolo[3,4-d]pyrimidin-6-yl)amino)-1-methyl-1H-pyrrole-2-carboxamide] | > 7.00 | 6.00 to 7.00 |
| CN(C)C(=O)c1cc(Nc2ncc3cnn(Cc4ccccc4F)c3n2)cn1C [Example 246, 4-((1-(2-Fluorobenzyl)-1H-pyrazolo[3,4-d]pyrimidin-6-yl)amino)-N,N,1-trimethyl-1H-pyrrole-2-carboxamide] | > 7.00 | 6.00 to 7.00 |
| OCCn1ccc(Nc2ncc3cnn(Cc4ccccc4F)c3n2)c1 [Example 247, 2-(3-((1-(2-Fluorobenzyl)-1H-pyrazolo[3,4-d]pyrimidin-6-yl)amino)-1H-pyrrol-1-yl)ethanol] | > 7.00 | 6.00 to 7.00 |
| Cn1cc(Nc2ncc3cnn(Cc4cccc(N5CCOCC5)c4)c3n2)cc1C(=O)N1CCOCC1 [Example 248] | > 7.00 | 5.00 to 6.00 |
| OCCn1cc(Nc2ncc3cnn(Cc4c(F)ccc(F)c4F)c3n2)cn1 [Example 254, 2-(4-((1-(2,3,6-Trifluorobenzyl)-1H-pyrazolo[3,4-d]pyrimidin-6-yl)amino)-1H-pyrazol-1-yl)ethanol] | > 7.00 | 6.00 to 7.00 |
| OCCn1cc(Nc2ncc3cnn(Cc4ccccc4C4CC4)c3n2)cn1 [Example 260, 2-(4-((1-(2-Cyclopropylbenzyl)-1H-pyrazolo[3,4-d]pyrimidin-6-yl)amino)-1H-pyrazol-1-yl)ethanol] | > 7.00 | 5.00 to 6.00 |
| OCCn1cc(Nc2ncc3cnn(Cc4c(F)cccc4C(F)(F)F)c3n2)cn1 [Example 261, 2-(4-((1-(2-Fluoro-6-(trifluoromethyl)benzyl)-1H-pyrazolo[3,4-d]pyrimidin-6-yl)amino)-1H-pyrazol-1-yl)ethanol] | > 7.00 | 5.00 to 6.00 |
| OCCn1cc(Nc2ncc3cnn(Cc4c(F)c(F)cc(N5CCNCC5)c4F)c3n2)cn1 [Example 283, 2-(4-((1-(2,3,6-Trifluoro-5-(piperazin-1-yl)benzyl)-1H-pyrazolo[3,4-d]pyrimidin-6-yl)amino)-1H-pyrazol-1-yl)ethanol] | > 7.00 | 5.00 to 6.00 |
| CNC(=O)Cn1cc(Nc2ncc3cnn(Cc4ccccc4F)c3n2)cn1 [Example 290, 2-(4-((1-(2-Fluorobenzyl)-1H-pyrazolo[3,4-d]pyrimidin-6-yl)amino)-1H-pyrazol-1-yl)-N-methylacetamide] | > 7.00 | 6.00 to 7.00 |
| CNC(=O)Cn1cc(Nc2ncc3cnn(Cc4cccc(F)n4)c3n2)cn1 [Example 291, 2-(4-((1-((6-Fluoropyridin-2-yl)methyl)-1H-pyrazolo[3,4-d]pyrimidin-6-yl)amino)-1H-pyrazol-1-yl)-N-methylacetamide] | > 7.00 | 5.00 to 6.00 |
| O=C1COCCN1c1ccc(F)c(Cn2ncc3cnc(Nc4cnn(CCO)c4)nc32)c1F [Example 293, 4-(2,4-Difluoro-3-((6-((1-(2-hydroxyethyl)-1H-pyrazol-4-yl)amino)-1H-pyrazolo[3,4-d]pyrimidin-1-yl)methyl)phenyl)morpholin-3-one] | > 7.00 | 5.00 to 6.00 |
| Cn1cc(Nc2ncc3cnn(Cc4c(F)ccc(N5CCNCC5)c4F)c3n2)cn1 [Example 301, 1-(2,6-Difluoro-3-(piperazin-1-yl)benzyl)-N-(1-methyl-1H-pyrazol-4-yl)-1H-pyrazolo[3,4-d]pyrimidin-6-amine] | > 7.00 | 5.00 to 6.00 |
